{
  "source": "patent US20100184704A1",
  "about": "“USE OF THE PEPTIDE GLY-ARG-GLY-ASP-ASN-PRO AS A THERAPEUTIC AGENT” (priority 2007, published 2010)",
  "key": {"HIV-1": {"system": "HIV-1", "assay": "HIV-1 antiviral assay (CPE reduction, MTS readout) in CEM-SS cells", "format": "cell-based", "settings": "peptide 10 micrograms per ml, strain HIV-1111B, 6 days post-infection"}, "HepG2-2.2.15 cells": {"system": "HepG2-2.2.15 cells", "assay": "Cytotoxicity in the HBV assay (dye uptake cell viability)", "format": "cell-based", "settings": "peptide 10 micrograms per ml"}, "CEM-SS cells": {"system": "CEM-SS cells", "assay": "Cytotoxicity in the HIV-1 assay (MTS cell viability)", "settings": "CEM-SS cells, HIV-1 assay; peptide 10 micrograms per ml; MTS"}, "[1]": {"assay": "Cytotoxicity in the HBV assay (dye uptake cell viability)", "format": "cell-based", "settings": "human, HepG2-2.2.15 cells (stable line containing HBV ayw genome), peptide 10 micrograms per ml"}, "[2]": {"assay": "Cytotoxicity in the HIV-1 assay (MTS cell viability)", "settings": "human, CEM-SS cells (uninfected, cells plus peptide only)"}, "Pseudomonas aeruginosa": {"system": "Pseudomonas aeruginosa", "assay": "Pseudomonas aeruginosa growth inhibition assay", "format": "cell-based", "settings": "peptide 10 micrograms per ml, visual read, scored positive/negative"}, "Streptococcus pneumoniae": {"system": "Streptococcus pneumoniae", "assay": "Streptococcus pneumoniae growth inhibition assay", "format": "cell-based", "settings": "peptide 10 micrograms per ml, visual read, scored positive/negative", "excerpt": "Results from Streptococcus pneumoniae assay:"}, "[3]": {"system": "Methicillin Resistant Staphylococcus Aureus (MRSA)", "assay": "Methicillin resistant Staphylococcus aureus (MRSA) growth inhibition assay", "format": "cell-based", "settings": "peptide 10 micrograms per ml, visual read, scored positive/negative (complete inhibition of macroscopic growth)"}, "[4]": {"assay": "Cytotoxicity in the HCMV assay (CellTiter 96 cell viability)", "settings": "human, MRC-5 cells (embryonal lung fibroblasts)"}, "[5]": {"system": "MRC-5 cells (human embryonal lung fibroblasts)", "settings": "6 days"}, "HCMV strain AD169": {"system": "HCMV strain AD169", "assay": "HCMV plaque reduction assay in MRC-5 cells", "settings": "HCMV AD169 in MRC-5 cells; peptide 10 micrograms per ml; 7-10 days"}},
  "note": "Where a SMILES comes first, the peptide text is derived from it.",
  "data": [
    {"smiles": "CC(C)(C)NC(=O)[C@@H]1CN(Cc2cccnc2)CCN1C[C@@H](O)C[C@@H](Cc1ccccc1)C(=O)N[C@H]1c2ccccc2C[C@H]1O", "note": "[Indinavir, indinavir]", "values": [
      {"measurement": "% CPE reduction in HIV-1 infected CEM-SS cells", "setting": "HIV-1", "value": 100, "unit": "%"}
    ]},
    {"smiles": "Nc1ccn([C@@H]2CS[C@H](CO)O2)c(=O)n1", "note": "[3TC, Lamivudine]", "values": [
      {"measurement": "% Cell viability", "setting": "HepG2-2.2.15 cells", "value": 95.8, "unit": "%"}
    ]},
    {"smiles": "Cc1cn([C@H]2C[C@H](N=[N+]=[N-])[C@@H](CO)O2)c(=O)[nH]c1=O", "note": "[AZT]", "values": [
      {"measurement": "% Cell viability", "setting": "CEM-SS cells", "value": 97, "unit": "%"},
      {"measurement": "% CPE reduction in HIV-1 infected CEM-SS cells", "setting": "HIV-1", "value": 99, "unit": "%"}
    ]},
    {"smiles": "N=C(N)NCCC[C@H](NC(=O)CN)C(=O)NCC(=O)N[C@@H](CC(=O)O)C(=O)N[C@@H](CC(N)=O)C(=O)N1CCC[C@H]1C(=O)O", "note": "[Gly-Arg-Gly-Asp-Asn-Pro, Gly-Arg-Gly-Asp-Asn-Pro-OH] (H-GRGDNP-OH)", "values": [
      {"measurement": "viability at 144 h, 10 micrograms per ml", "setting": "[1]", "value": 95.2, "unit": "%"},
      {"measurement": "viability at 10 micrograms per ml", "setting": "[2]", "value": 100, "unit": "%"},
      {"measurement": "% inhibition", "setting": "Pseudomonas aeruginosa", "value": 0.0, "unit": "%"},
      {"measurement": "% inhibition", "setting": "Streptococcus pneumoniae", "value": 100.0, "unit": "%"},
      {"measurement": "% inhibition", "setting": "[3]", "value": 0.0, "unit": "%"},
      {"measurement": "viability at 144 h", "setting": "[4]", "value": 100, "unit": "%"}
    ]},
    {"smiles": "Nc1nc(O)c2ncn(COC(CO)CO)c2n1", "note": "[Ganciclovir]", "values": [
      {"measurement": "% Cell viability", "setting": "[5]", "value": 100, "unit": "%"},
      {"measurement": "% plaque reduction", "setting": "HCMV strain AD169", "value": 100, "unit": "%"}
    ]}
  ]
}
